Columns and labels:
22Rv1 cells = assay: Cell proliferation assay (CellTiter-Glo, 5-day exposure), 22Rv1; type: cell-based; conditions: 22Rv1, 1000 cells/well, Th-227 labelled at 375 kBq/nmol, mean of 1 to 6 experiments
Procedure, shortened: (§1)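 Cells were plated (4000/well VCaP, 1000/well for the other lines), left overnight at 37 °C with 5% CO2, then exposed for 5 days to Thorium-227-labelled PSMA ligands. Viability before and after exposure was measured by CellTiter-Glo.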

VCaP cells = assay: Cell proliferation assay (CellTiter-Glo, 5-day exposure), VCaP; type: cell-based; conditions: 4000 cells/well, Th-227 labelled at 375 kBq/nmol, mean of 1 to 6 experiments
Procedure, shortened: as §1

[1] = test system: LNCaP human prostate cancer cells; assay: LNCaP xenograft efficacy study (T/C tumor area); type: in vivo, SCID mice; conditions: Example IV; day 36 after start of therapy; once 1 MBq/kg
Procedure, shortened: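 SCID mice with testosterone pellet bearing s.c. flank LNCaP xenografts (5×10^6 cells in Matrigel) were treated i.v. with a defined radioactive dose once tumors reached 35-50 mm^2 (n=10/group). Tumor area (caliper, longest diameter × perpendicular) measured 2-3× weekly; T/C ratio calculated from tumor areas when vehicle group closed.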

[2] = Biodistribution study in LNCaP tumor-bearing mice (Th227 counted in organs); type: in vivo, SCID mice; conditions: 1500 kBq/kg
Experimental: SCID mice were randomly assigned to experimental groups, ten animals per group (efficacy) or n=3-5 per time point of biodistribution study. At the initiation of the study, a testosterone pellet was subcutaneously transplanted, the animals were shaved, tattooed and each cage was labeled with the cage number, study number and number of animals per cage.
LNCaP human prostate cancer cells were cultured as described according to the supplier's protocols. Cells were harvested for transplantation in a subconfluent (70%) state. Animals were injected with 5×10^6 LNCaP cells suspended in 100% Matrigel subcutaneously into the flank of the mice.
Biodistribution study: When tumors reached a predetermined size in mice of ˜50 mm^2 animals were randomized into groups (n=3 animals/time point) and the radioactive compound was once applied intravenously. The i.v. application volume was 100 μl/mice.
At the predetermined time point, n=3 animals were sacrificed, the organs removed, weight and measured in a Germanium detector to count the Th227 in the sample.

C4-2 cells = assay: Cell proliferation assay (CellTiter-Glo, 5-day exposure), C4-2; type: cell-based; conditions: C4-2, 1000 cells/well, Th-227 labelled at 375 kBq/nmol, mean of 1 to 6 experiments
Procedure, shortened: as §1

Cc1cc(C(=O)NCCN(CCCN(CCNC(=O)c2cc(C)n(CC(=O)O)c(=O)c2[O-])CCNC(=O)c2cc(C)n(CC(=O)NCC3CCC(C(=O)NC(Cc4cnc5ccccc5c4)C(=O)NCCCCC(NC(=O)NC(CCC(=O)O)C(=O)O)C(=O)O)CC3)c(=O)c2[O-])CCNC(=O)c2cc(C)n(CC(=O)NCC3CCC(C(=O)NC(Cc4cnc5ccccc5c4)C(=O)NCCCCC(NC(=O)NC(CCC(=O)O)C(=O)O)C(=O)O)CC3)c(=O)c2[O-])c([O-])c(=O)n1CC(=O)O.[227Th+4] (stereo not drawn) [Example 22-C dimer-227Th]
Proliferation assay on cancer cell lines by TTCs Default Pivot #3 IC50 [kBq/mL] 22Rv1 1000cells 375kBq/nmol (mean) (22Rv1 cells): 0.89 kBq/mL | Proliferation assay on cancer cell lines by TTCs Default Pivot #3 IC50 [kBq/mL] VCap 4000cells 375kBq/nmol (mean) (VCaP cells): 3.65 kBq/mL | T/Carea [1]: 0.67 | Th-227 in Blood ([2]; 0.25 h): 3.35% ID Th-227/g organ | Th-227 in Liver ([2]; 0.25 h): 1.79% ID Th-227/g organ | Th-227 in Spleen ([2]; 0.25 h): 13.87% ID Th-227/g organ | Th-227 in Tumor ([2]; 0.25 h): 4.57% ID Th-227/g organ | Th-227 in bone ([2]; 0.25 h): 2.50% ID Th-227/g organ | Th-227 in brain ([2]; 0.25 h): 0.13% ID Th-227/g organ | Th-227 in kidney ([2]; 0.25 h): 61.44% ID Th-227/g organ | Th-227 in large intestine ([2]; 0.25 h): 0.87% ID Th-227/g organ | Th-227 in lung ([2]; 0.25 h): 3.56% ID Th-227/g organ | Th-227 in muscle ([2]; 0.25 h): 1.27% ID Th-227/g organ | Th-227 in prostate ([2]; 0.25 h): 5.47% ID Th-227/g organ | Th-227 in salivary glands ([2]; 0.25 h): 2.63% ID Th-227/g organ | Th-227 in small intestine ([2]; 0.25 h): 1.64% ID Th-227/g organ | Th-227 in Blood ([2]; 1 hr): 0.53% ID Th-227/g organ | Th-227 in Liver ([2]; 1 hr): 0.41% ID Th-227/g organ | Th-227 in Spleen ([2]; 1 hr): 8.93% ID Th-227/g organ | Th-227 in Tumor ([2]; 1 hr): 4.49% ID Th-227/g organ | Th-227 in bone ([2]; 1 hr): 1.12% ID Th-227/g organ | Th-227 in brain ([2]; 1 hr): 0.01% ID Th-227/g organ | Th-227 in kidney ([2]; 1 hr): 96.67% ID Th-227/g organ | Th-227 in large intestine ([2]; 1 hr): 0.23% ID Th-227/g organ | Th-227 in lung ([2]; 1 hr): 1.30% ID Th-227/g organ | Th-227 in muscle ([2]; 1 hr): 0.28% ID Th-227/g organ | Th-227 in prostate ([2]; 1 hr): 1.66% ID Th-227/g organ | Th-227 in salivary glands ([2]; 1 hr): 0.69% ID Th-227/g organ | Th-227 in small intestine ([2]; 1 hr): 0.38% ID Th-227/g organ | Th-227 in Blood ([2]; 4 hr): 0.10% ID Th-227/g organ | Th-227 in Liver ([2]; 4 hr): 0.60% ID Th-227/g organ | Th-227 in Spleen ([2]; 4 hr): 1.68% ID Th-227/g organ | Th-227 in Tumor ([2]; 4 hr): 2.18% ID Th-227/g organ | Th-227 in bone ([2]; 4 hr): 0.74% ID Th-227/g organ | Th-227 in brain ([2]; 4 hr): 0.00% ID Th-227/g organ | Th-227 in kidney ([2]; 4 hr): 45.26% ID Th-227/g organ | Th-227 in large intestine ([2]; 4 hr): 0.29% ID Th-227/g organ | Th-227 in lung ([2]; 4 hr): 0.38% ID Th-227/g organ | Th-227 in muscle ([2]; 4 hr): 0.05% ID Th-227/g organ | Th-227 in prostate ([2]; 4 hr): 0.20% ID Th-227/g organ | Th-227 in salivary glands ([2]; 4 hr): 0.36% ID Th-227/g organ | Th-227 in small intestine ([2]; 4 hr): 0.21% ID Th-227/g organ | Th-227 in Blood ([2]; 24 h): 0.02% ID Th-227/g organ | Th-227 in Liver ([2]; 24 h): 078% ID Th-227/g organ | Th-227 in Spleen ([2]; 24 h): 1.96% ID Th-227/g organ | Th-227 in Tumor ([2]; 24 h): 2.23% ID Th-227/g organ | Th-227 in bone ([2]; 24 h): 0.46% ID Th-227/g organ | Th-227 in brain ([2]; 24 h): 0.00% ID Th-227/g organ | Th-227 in kidney ([2]; 24 h): 11.35% ID Th-227/g organ | Th-227 in large intestine ([2]; 24 h): 0.21% ID Th-227/g organ | Th-227 in lung ([2]; 24 h): 0.25% ID Th-227/g organ | Th-227 in muscle ([2]; 24 h): 0.00% ID Th-227/g organ | Th-227 in prostate ([2]; 24 h): 0.02% ID Th-227/g organ | Th-227 in salivary glands ([2]; 24 h): 0.18% ID Th-227/g organ | Th-227 in small intestine ([2]; 24 h): 0.10% ID Th-227/g organ | Th-227 in Blood ([2]; 96 h): 0.00% ID Th-227/g organ | Th-227 in Liver ([2]; 96 h): 0.31% ID Th-227/g organ | Th-227 in Spleen ([2]; 96 h): 0.43% ID Th-227/g organ | Th-227 in Tumor ([2]; 96 h): 0.66% ID Th-227/g organ | Th-227 in bone ([2]; 96 h): 0.83% ID Th-227/g organ | Th-227 in brain ([2]; 96 h): 0.00% ID Th-227/g organ | Th-227 in kidney ([2]; 96 h): 2.18% ID Th-227/g organ | Th-227 in large intestine ([2]; 96 h): 0.04% ID Th-227/g organ | Th-227 in lung ([2]; 96 h): 0.16% ID Th-227/g organ | Th-227 in muscle ([2]; 96 h): 0.00% ID Th-227/g organ | Th-227 in prostate ([2]; 96 h): 0.00% ID Th-227/g organ | Th-227 in salivary glands ([2]; 96 h): 0.19% ID Th-227/g organ | Th-227 in small intestine ([2]; 96 h): 0.04% ID Th-227/g organ | Proliferation assay on cancer cell lines by TTCs Default Pivot #3 IC50 [kBq/mL] C4-2 1000cells 375kBq/nmol (mean) (C4-2 cells): 2.56 kBq/mL

Reference: patent US20230072421A1, “TARGETED RADIOPHARMACEUTICALS FOR THE DIAGNOSIS AND TREATMENT OF PROSTATE CANCER” (Bayer AS, priority 2019, published 2023)
